In PMC11881343, “Safety of ilunocitinib tablets (Zenrelia™) after once daily oral administration in dogs” (BMC Veterinary Research, 2025):

Tests used:
healthy Beagle dogs [1] = test: 6-month target animal safety study: clinical observations, physical, neurological and ophthalmoscopic examinations; settings: for Skin discoloration, number of animals affected / Skin lesion w/discharge, number of animals affected / Skin lesion, number of animals affected / Skin scab paw, number of animals affected / Skin thickening (paws), number of animals affected / Swollen paws, number of animals affected: 8 dogs per group
Experimental: This was a randomized, controlled, blinded, 6-month study with a parallel design. Using a block randomization procedure stratified by sex, 20 males and 20 females were randomly allocated on study day − 3 to one of the following five groups (4 males and 4 females per group): Group 1: Untreated control (sham-dosed with 5 mL of tap water); Group 2: Ilunocitinib film-coated tablets at a target dose level of 0.8 mg/kg (1X); Group 3: Ilunocitinib film-coated tablets at a target dose level of 1.6 mg/kg (2X); Group 4: Ilunocitinib film-coated tablets at a target dose level of 2.4 mg/kg (3X) and Group 5: Ilunocitinib film-coated tablets at a target dose level of 4.0 mg/kg (5X). The experimental unit was the individual dog.
The dose levels were selected based on the maximum therapeutic dose (i.e. 0.8 mg/kg, 1X) and the requirement to test multiples of the maximum therapeutic dose, i.e. 2X, 3X and 5X the therapeutic dose. Doses for each individual animal were based on the most recent body weight. Commercial tablets of ilunocitinib, available in 4.8, 6.4, 8.5, and 15 mg strength, were dispensed. These tablets were combined appropriately to meet the individual’s precise dosage requirement, ensuring there was no underdosing. […] Approximately 5 mL of water was given after each administration and the mouth checked to ensure the tablets had been swallowed. Control animals were sham treated with 5 mL of tap water.
Animals were observed twice daily, at least 6 h apart, over the entire course of the study for morbidity, mortality and injury. Clinical examinations of each dog were performed before treatment administration and at approximately 2 and 5 h post treatment. Observations included, but were not limited to, evaluation of skin, fur, eyes, ears, nose, oral cavity, thorax, abdomen, external genitalia, limbs and feet, respiratory and circulatory signs, autonomic effects such as salivation, and nervous system effects including tremors, convulsions, reactivity to handling, and unusual behavior.
Body weights for all animals were recorded during the acclimation phase (study days − 12 and − 1) and then once weekly during the study. Food consumption (dry and wet food) was measured and recorded daily. […] Assessments including overall general condition and behavior, ocular inspection, integument, musculoskeletal, gastrointestinal, body temperature, cardiovascular and respiratory systems including auscultation-based assessment, reproductive, lymphatic, urinary and nervous systems.

[2] = 6-month safety study: body weights and food consumption; type: in vivo, dog
Experimental: (§1) Endpoints measured multiple times post-treatment that included a pre-treatment measurement (Serum chemistry, C-reactive protein, coagulation, hematology, urinalysis, body weight, body weight changes and food consumption) were analyzed using repeated measures analysis of covariance (RMANCOVA) with ‘treatment’, ‘time’, and ‘sex’; the two-way interactions ‘treatment by time’, ‘treatment by sex’, and ‘sex by time’; the three-way interaction ‘treatment by time by sex’ and a covariate all as fixed effects. The last available pre-treatment value was used as the covariate.

healthy Beagle dogs [3] = test: 6-month safety study: clinical pathology (hematology, coagulation, clinical chemistry, C-reactive protein, urinalysis); type: in vivo, dog; settings: for MCHC, effect compared to 0X / Hb (hemoglobin), effect compared to 0X / Total Protein, effect compared to 0X / MCH, effect compared to 0X / HCT (hematocrit), effect compared to 0X / RBC, effect compared to 0X: all study days; for Hb (hemoglobin), effect compared to 0X / HCT (hematocrit), effect compared to 0X / RBC, effect compared to 0X: pooled sexes; for Total Protein, effect compared to 0X: significant in pooled by sex, males (2X, 3X, 5X) females (3X, 5X); for Albumin, effect compared to 0X: beginning on study day 57; for Eosinophils, effect compared to 0X: study days 29–183, females only; for Fibrinogen, effect compared to 0X: study days 57–183, association with interdigital cysts
Experimental: Blood samples were collected from the jugular vein for the evaluation of hematology, clinical chemistry and coagulation variables at pre-test, and on study days 29, 57, 85, 113, 141, 169 and 183. The complete panel of clinical pathology parameters (hematology, blood chemistry and urinalysis) according to VICH Guideline 43 [10] are listed in Table 1. Urine samples were collected using steel pans placed under the cages for at least 16 h at the same timepoints.
as §1
If the interaction terms were significant (P ≤ 0.10 level for two-way interactions and P ≤ 0.05 for the three-way interaction), treated groups were compared to the control either within each sex (treatment by sex significant), within each time point (treatment by time significant) or main effect only (neither treatment by sex nor treatment by time significant).

[4] = dog, in vivo
Experimental: (§2) Samples were collected at pre-dose and at 0.5, 1, 2, 5, 8 and 24 h post-dosing on the day of the first and last dose (study days 1 and 182) and at pre-dose and at 1 and 24 h post-dosing at study day 85. Blood samples were collected in tubes containing K2 EDTA. Blood was processed to plasma within one hour of collection and plasma samples were stored frozen at -20 °C until analyzed.
(§3) The bioanalytical data were processed as individual concentration vs. time profiles using a non-compartmental analysis (NCA). Calculations were performed with the software Phoenix WinNonlin (version 8.3; Certara, USA). Tmax and Cmax were derived from observed values. AUCs were calculated using the Linear Up Log Down method. In addition, T1/2 was calculated using the best fit method and dose, time and sex effects were evaluated based on Cmax and AUClast ratios.

healthy Beagle dogs [5] = settings: dog, in vivo
Experimental: At study termination (study day 183), the dogs were humanely euthanized by an intravenous injection of pentobarbital sodium/phenytoin solution under sedation with 6.6–13.2 mg/kg Telazol® (tiletamine/zolazepam) subcutaneous injection. Gross and microscopic examinations were carried out on all animals by a board-certified veterinary pathologist.

dogs = test system: dogs; parameters: method as in internal report; settings: dogs maintained on concrete floors with corn cob bedding; ref internal report; cited from earlier work
[6] = Plasma pharmacokinetics of ilunocitinib (LC-MS/MS, non-compartmental analysis)
Experimental: as §2, §3

[7] = 1X (0.8 mg/kg oral once daily, 6 months)
[8] = 2X (1.6 mg/kg oral once daily, 6 months)
[9] = 3X (2.4 mg/kg oral once daily, 6 months)
[10] = 5X (4.0 mg/kg oral once daily, 6 months)
[11] = 1X group (0.8 mg/kg/day, 6 months)
[12] = 2X group (1.6 mg/kg/day, 6 months)
[13] = 3X group (2.4 mg/kg/day, 6 months)
[14] = 5X group (4.0 mg/kg/day, 6 months)
[15] = males at 2X, 3X, and 5X and females at 5X, beginning study day 57, 85, or 113 through study day 183

SMILES: N#CCC1(n2cc(-c3ncnc4[nH]ccc34)cn2)CN(S(=O)(=O)C2CC2)C1 [ilunocitinib]
- serious adverse effects during the course of the study (healthy Beagle dogs [1]; 0.8 to 4.0 mg/kg once daily for 6 months): no serious adverse effects
- Skin discoloration, number of animals affected (healthy Beagle dogs [1]; [7]): 1
- Skin lesion w/discharge, number of animals affected (healthy Beagle dogs [1]; [7]): 1
- Skin lesion, number of animals affected (healthy Beagle dogs [1]; [7]): 4
- Skin scab paw, number of animals affected (healthy Beagle dogs [1]; [7]): 0
- Skin thickening (paws), number of animals affected (healthy Beagle dogs [1]; [7]): 0
- Swollen paws, number of animals affected (healthy Beagle dogs [1]; [7]): 1
- interdigital furunculosis, or cysts, with or without discharge on one or more paws (healthy Beagle dogs [1]; 1X to 5X): dose-dependent presence
- Skin discoloration, number of animals affected (healthy Beagle dogs [1]; [8]): 1
- Skin lesion w/discharge, number of animals affected (healthy Beagle dogs [1]; [8]): 3
- Skin lesion, number of animals affected (healthy Beagle dogs [1]; [8]): 5
- Skin scab paw, number of animals affected (healthy Beagle dogs [1]; [8]): 0
- Skin thickening (paws), number of animals affected (healthy Beagle dogs [1]; [8]): 1
- Swollen paws, number of animals affected (healthy Beagle dogs [1]; [8]): 5
- Skin discoloration, number of animals affected (healthy Beagle dogs [1]; [9]): 2
- Skin lesion w/discharge, number of animals affected (healthy Beagle dogs [1]; [9]): 3
- Skin lesion, number of animals affected (healthy Beagle dogs [1]; [9]): 6
- Skin scab paw, number of animals affected (healthy Beagle dogs [1]; [9]): 1
- Skin thickening (paws), number of animals affected (healthy Beagle dogs [1]; [9]): 1
- Swollen paws, number of animals affected (healthy Beagle dogs [1]; [9]): 6
- Skin discoloration, number of animals affected (healthy Beagle dogs [1]; [10]): 0
- Skin lesion w/discharge, number of animals affected (healthy Beagle dogs [1]; [10]): 4
- Skin lesion, number of animals affected (healthy Beagle dogs [1]; [10]): 8
- Skin scab paw, number of animals affected (healthy Beagle dogs [1]; [10]): 1
- Skin thickening (paws), number of animals affected (healthy Beagle dogs [1]; [10]): 0
- Swollen paws, number of animals affected (healthy Beagle dogs [1]; [10]): 3
- ophthalmological or neurological findings associated with treatment (healthy Beagle dogs [1]; all dose levels): No ophthalmological or neurological findings
- serious adverse effects or mortality (healthy Beagle dogs [1]; including at 5X overdose for 6 months): no serious adverse effects or mortality
- tolerability (healthy Beagle dogs [1]; therapeutic dose (0.8 mg/kg)): well-tolerated
- Body weight gain [2, 11]: 0.06 ± 0.02 kg
- mean body weight (± standard error) throughout the study [2, 11]: 10.30 ± 0.20 kg
- body weight, treatment effect vs control ([2]; 1X, 3X and 5X groups, main effect of treatment p = 0.0026): statistically significant increases
- Body weight gain [2, 12]: 0.03 ± 0.02 kg
- mean body weight (± standard error) throughout the study [2, 12]: 9.76 ± 0.20 kg
- body weight change, treatment effect vs control ([2]; 3X and 5X, main effect of treatment p = 0.0952): statistically significant increases
- Body weight gain [2, 13]: 0.06 ± 0.02 kg
- mean body weight (± standard error) throughout the study [2, 13]: 10.31 ± 0.20 kg
- Body weight gain [2, 14]: 0.06 ± 0.02 kg
- mean body weight (± standard error) throughout the study [2, 14]: 10.46 ± 0.20 kg
- weekly averaged daily food consumption, treatment effect ([2]; all dose groups): statistically significant (p = 0.0872) time by treatment interaction
- red cell parameters (healthy Beagle dogs [3]; 1X group): stayed within the reference range
- MCHC, effect compared to 0X (healthy Beagle dogs [3]; 2X (1.6 mg/kg/day)): minimally lower and ↓
- Hb (hemoglobin), effect compared to 0X (healthy Beagle dogs [3]; 2X (1.6 mg/kg/day)): minimally lowered and ↓
- Total Protein, effect compared to 0X (healthy Beagle dogs [3]; 2X (1.6 mg/kg/day)): ↑
- MCH, effect compared to 0X (healthy Beagle dogs [3]; 3X (2.4 mg/kg/day)): minimally lower and ↓
- MCHC, effect compared to 0X (healthy Beagle dogs [3]; 3X (2.4 mg/kg/day)): minimally lower and ↓
- HCT (hematocrit), effect compared to 0X (healthy Beagle dogs [3]; 3X (2.4 mg/kg/day)): ↓
- Hb (hemoglobin), effect compared to 0X (healthy Beagle dogs [3]; 3X (2.4 mg/kg/day)): minimally lowered and ↓
- RBC, effect compared to 0X (healthy Beagle dogs [3]; 3X (2.4 mg/kg/day)): ↓
- Total Protein, effect compared to 0X (healthy Beagle dogs [3]; 3X (2.4 mg/kg/day)): ↑
- Albumin, effect compared to 0X (healthy Beagle dogs [3]; 3X (2.4 mg/kg/day)): minimally lower and ↓
- Total Protein, effect compared to 0X (time by treatment interaction) (healthy Beagle dogs [3]; 3X (2.4 mg/kg/day), study day 113): minimally higher means and ↑
- Eosinophils, effect compared to 0X (healthy Beagle dogs [3]; 3X (2.4 mg/kg/day)): ↓
- Fibrinogen, effect compared to 0X (healthy Beagle dogs [3]; 3X (2.4 mg/kg/day)): marginally elevated concentrations and ↑
- MCH, effect compared to 0X (healthy Beagle dogs [3]; 5X (4.0 mg/kg/day)): minimally lower and ↓
- MCHC, effect compared to 0X (healthy Beagle dogs [3]; 5X (4.0 mg/kg/day)): minimally lower and ↓
- HCT (hematocrit), effect compared to 0X (healthy Beagle dogs [3]; 5X (4.0 mg/kg/day)): ↓
- Hb (hemoglobin), effect compared to 0X (healthy Beagle dogs [3]; 5X (4.0 mg/kg/day)): minimally lowered and ↓
- RBC, effect compared to 0X (healthy Beagle dogs [3]; 5X (4.0 mg/kg/day)): ↓
- Total Protein, effect compared to 0X (healthy Beagle dogs [3]; 5X (4.0 mg/kg/day)): ↑
- Albumin, effect compared to 0X (healthy Beagle dogs [3]; 5X (4.0 mg/kg/day)): minimally lower and ↓
- Eosinophils, effect compared to 0X (healthy Beagle dogs [3]; 5X (4.0 mg/kg/day)): ↓
- Fibrinogen, effect compared to 0X (healthy Beagle dogs [3]; 5X (4.0 mg/kg/day)): marginally elevated concentrations and ↑
- Total Protein, effect compared to 0X (time by treatment interaction) (healthy Beagle dogs [3]; 5X (4.0 mg/kg/day), study days 85,113,141): minimally higher means and ↑
- myeloid: erythroid ratios (healthy Beagle dogs [3]; Two dogs in the 5X group): minimally lower
- effects on lymphocytes, monocytes, basophils and reticulocytes (healthy Beagle dogs [3]; all dose levels): no treatment-related effects
- alkaline phosphatase, alanine aminotransferase, aspartate aminotransferase, triglycerides, plasma creatinine and urea levels or any other clinical chemistry parameters (healthy Beagle dogs [3]; all treatment groups, within normal ranges): No changes
- effects on urinalysis endpoints (healthy Beagle dogs [3]; either sex at any dose level): no test article-related effects
- C-reactive protein (CRP) levels (healthy Beagle dogs [3]; elevated doses, dogs with visible skin disease): higher
- Total protein values in males vs control (healthy Beagle dogs [3]; males at 2X, 3X, and 5X): significantly (p = 0.0437) higher
- Mean globulin concentrations vs control means (healthy Beagle dogs [3]; [15]): minimally higher
- mean albumin/globulin ratios vs control means (healthy Beagle dogs [3]; [15]): minimally to mildly lower
- prothrombin time and activated partial thromboplastin time (healthy Beagle dogs [3]; throughout the study, all dose levels): remained in the reference range
- half-life [4]: approximately 3 h
- increase of exposure with dose [4]: close to dose proportional
- Microscopic findings across all groups (healthy Beagle dogs [5]): minimal and largely consistent with background pathology
- combined adrenal gland weight vs controls (healthy Beagle dogs [5]): increased combined adrenal gland weight
- cutaneous lesions (microscopic), animals affected (healthy Beagle dogs [5]): 5 out of 8
- enlarged thyroid/parathyroid glands (incidental macroscopic finding) (healthy Beagle dogs [5]): single case of enlarged thyroid/parathyroid glands
- focal lesions on the lungs (incidental macroscopic finding) (healthy Beagle dogs [5]): two focal lesions on the lungs
- interdigital cysts (IDC) (dogs): not observed
- AUC ratio, study day 182 vs day 1 ([6]; group 2 (1X: 0.8 mg/kg)): 1.2
- AUC ratio, study day 182 vs day 1 ([6]; group 3 (2X: 1.6 mg/kg)): 1.4
- AUC ratio, study day 182 vs day 1 ([6]; group 4 (3X: 2.4 mg/kg)): 1.6
- AUC ratio, study day 182 vs day 1 ([6]; group 5 (5X: 4.0 mg/kg)): 1.2
